Target: T1, L-CPT1 (human liver CPT1) (Homo sapiens, UniProt P50416)
T1 construct: made in house; host or cells: Pichia pastoris strain X-33 (pGAPZB/pGAPZA plasmids); crude cell-free extracts
T1 sequence (P50416 1-773): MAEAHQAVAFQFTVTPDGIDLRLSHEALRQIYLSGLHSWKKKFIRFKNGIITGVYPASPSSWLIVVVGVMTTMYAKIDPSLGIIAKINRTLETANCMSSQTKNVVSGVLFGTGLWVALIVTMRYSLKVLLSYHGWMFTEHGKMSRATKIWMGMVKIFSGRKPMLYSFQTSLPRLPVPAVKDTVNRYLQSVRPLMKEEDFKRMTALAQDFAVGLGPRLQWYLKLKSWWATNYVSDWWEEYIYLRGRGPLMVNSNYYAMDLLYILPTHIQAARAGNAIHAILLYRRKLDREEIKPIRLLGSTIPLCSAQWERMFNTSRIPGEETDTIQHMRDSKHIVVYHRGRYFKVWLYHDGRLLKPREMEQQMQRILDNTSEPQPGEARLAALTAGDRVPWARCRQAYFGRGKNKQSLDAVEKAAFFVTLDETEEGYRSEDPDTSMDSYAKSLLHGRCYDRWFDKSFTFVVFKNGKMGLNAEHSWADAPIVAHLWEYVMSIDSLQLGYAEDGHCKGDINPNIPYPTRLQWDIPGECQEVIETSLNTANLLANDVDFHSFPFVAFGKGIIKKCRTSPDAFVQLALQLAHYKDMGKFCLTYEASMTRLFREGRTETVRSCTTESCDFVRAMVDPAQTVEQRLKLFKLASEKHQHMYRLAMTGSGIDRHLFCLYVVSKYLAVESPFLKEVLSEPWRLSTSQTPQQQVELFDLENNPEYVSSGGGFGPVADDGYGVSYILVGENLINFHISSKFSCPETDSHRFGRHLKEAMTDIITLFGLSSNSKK
Experiment: L-CPT1 inhibition, spectrophotometric CPT activity assay with DTNB (Ellman's reagent)
Assay type: biochemical
Conditions: human liver CPT1 expressed in P. pastoris, cell extracts; carnitine 500 μM, palmitoyl-CoA 80 μM, DTNB 300 μM, pH 7.4

| IC50 | Compound |
| --- | --- |
| 210 nM | COc1ccc(Cl)cc1S(=O)(=O)N1CCc2c(C)cc(C(=O)Nc3ccc(CC(=O)O)cc3)cc21 [Example 14, (4-{[1-(5-Chloro-2-methoxy-benzenesulfonyl)-4-methyl-2,3-dihydro-1H-indole-6-carbonyl]-amino}-phenyl)-acetic acid] |
| 125 nM | O=C(O)Cc1ccc(NC(=O)c2ccc3c(c2)N(S(=O)(=O)c2cccc(Cl)c2)CC3)cc1 [Example 7, (4-{[1-(3-Chloro-benzenesulfonyl)-2,3-dihydro-1H-indole-6-carbonyl]-amino}-phenyl)-acetic acid] |

From patent publication US7799933B2, “Sulfonamide derivatives” (Hoffman-La Roche Inc., priority 2006, dated 2010)
